# Assay results as given in publication PMC11191095, “QSAR Reveals Decreased Lipophilicity of Polar Residues Determines the Selectivity of Antimicrobial Peptide Activity” (ACS Omega, 2024).
# Where a SMILES comes first, the peptide text is derived from it.
# Key:
# Test in all cases: microbe, parasite or virus in culture
# C. glabrata NCPF 8018 = type: cell-based; conditions: NCPF 8018, 20 h
# Method: (§1) Antimicrobial activity was evaluated against a panel of 18 pathogens consisting of eight Gram-negative strains (E. coli NCTC 12923, E. coli LEC001, Pseudomonas aeruginosa PAO1, P. aeruginosa NCTC 13437, Acinetobacter baumannii ATCC 17978, A. baumannii AYE, Klebsiella pneumoniae M6, K. pneumoniae NCTC 13368), four Gram-positive strains (Staphylococcus aureus ATCC 9144, S. aureus NCTC 13616, S. aureus USA300, S. aureus 1199B) and six fungi (Candida auris TDG 1912, C. albicans NCPF 8018, C. krusei NCPF 3876, C. tropicalis NCPF 8760, and C. parapsilosis NCPF 3209). Pathogens were grown in noncation adjusted Mueller Hinton broth (MHB, for bacteria) or Roswell Park Memorial Institute (RPMI 1640) + 2% glucose (for fungi) at 37 °C with 180 rpm shaking and maintained on solid media (tryptic soy agar for bacteria and Sabouraud dextrose agar for fungi). For an antibiogram, see Suppl.
# (§2) The 46 peptides were serially diluted (128 to 2 μg/mL) in media down polypropylene 96-well plates. Bacteria or fungi, diluted from an overnight culture to an OD600 of 0.01, were added to the serially diluted peptides at a 1:1 ratio resulting in a starting cell density of ∼5 × 10^5 CFU/mL. Plates were incubated at 37 °C for 20 h, and the optical density was determined spectrophotometrically at 600 nm. Minimum inhibition concentrations (MICs) were determined from a minimum of three biological repeats and are reported in μg/mL as well as μM. […] The MIC50 or MIC90 is defined as the lowest peptide concentration that results in 50% or 90% growth inhibition over a 20 h treatment period, respectively.
# C. tropicalis NCPF 8760 = type: cell-based; conditions: NCPF 8760, 20 h
# Method: as §1, §2
# C. krusei NCPF 3876 = type: cell-based; conditions: NCPF 3876, 20 h
# Method: as §1, §2
# [1] = test system: C. parapsilosis NCPF 3209; type: cell-based; conditions: NCPF 3209, 20 h
# Method: as §1, §2
# C. albicans NCPF 3281 = type: cell-based; conditions: NCPF 3281, 20 h
# Method: as §1, §2
# E. coli NCTC 12923 = type: cell-based, Escherichia coli
# Method: as §1, §2
# E. coli LEC001 = type: cell-based, Escherichia coli
# Method: as §1, §2
# P. aeruginosa NCTC 13437 = type: cell-based, Pseudomonas aeruginosa
# Method: as §1, §2
# A. baumannii AYE = type: cell-based, Acinetobacter baumannii; conditions: 20 h
# Method: as §1, §2
# A. baumannii ATCC 17978 = type: cell-based, Acinetobacter baumannii
# Method: as §1, §2
# C. auris TDG 1912 = type: cell-based, Candida auris; conditions: TDG 1912, 20 h
# Method: as §1, §2
# K. pneumoniae NCTC 13368 = type: cell-based, Klebsiella pneumoniae
# Method: as §1, §2
# K. pneumoniae M6 = type: cell-based, Klebsiella pneumoniae
# Method: as §1, §2
# S. aureus (MRSA) USA300 = type: cell-based, Staphylococcus aureus; conditions: USA300, 20 h
# Method: as §1, §2
# [2] = test system: S. aureus (MRSA) NCTC 13616; type: cell-based, Staphylococcus aureus
# Method: as §1, §2
# [3] = test system: S. aureus (MSSA) ATCC 9144; type: cell-based, Staphylococcus aureus; conditions: ATCC 9144, 20 h
# Method: as §1, §2
# S. aureus (MRSA) 1199B = type: cell-based, Staphylococcus aureus; conditions: S. aureus (MRSA) 1199B (R); shown in µM
# Method: as §1, §2
# P. aeruginosa PAO1 = type: cell-based, Pseudomonas aeruginosa
# Method: as §1, §2
Compound,Modal MIC50 (C. glabrata NCPF 8018) [µM],Modal MIC90 (C. glabrata NCPF 8018) [µM],Modal MIC50 (C. tropicalis NCPF 8760) [µM],Modal MIC90 (C. tropicalis NCPF 8760) [µM],Modal MIC50 (C. krusei NCPF 3876) [µM],Modal MIC90 (C. krusei NCPF 3876) [µM],Modal MIC50 [1] [µM],Modal MIC90 [1] [µM],Modal MIC50 (C. albicans NCPF 3281) [µM],Modal MIC90 (C. albicans NCPF 3281) [µM],"Modal MIC (E. coli NCTC 12923; NCTC 12923, 20 h) [µM]","Modal MIC (E. coli LEC001; LEC001, 20 h) [µM]","Modal MIC (P. aeruginosa NCTC 13437; NCTC 13437, 20 h) [µM]",Modal MIC (A. baumannii AYE; AYE) [µM],"Modal MIC (A. baumannii ATCC 17978; ATCC 17978, 20 h) [µM]",Modal MIC50 (C. auris TDG 1912) [µM],Modal MIC90 (C. auris TDG 1912) [µM],"Modal MIC (K. pneumoniae NCTC 13368; NCTC 13368, 20 h) [µM]","Modal MIC (K. pneumoniae M6; M6, 20 h) [µM]",Modal MIC [3] [µM],also measured
CC[C@H](C)[C@H](NC(=O)[C@H](CCCCN)NC(=O)[C@H](CC(C)C)NC(=O)CNC(=O)[C@H](C)NC(=O)[C@H](CCCCN)NC(=O)[C@H](CC(C)C)NC(=O)[C@H](C)NC(=O)[C@H](CCCCN)NC(=O)CNC(=O)[C@H](CC(C)C)NC(=O)[C@H](Cc1ccccc1)NC(=O)[C@H](CO)NC(=O)[C@H](C)NC(=O)[C@H](CC(C)C)NC(=O)CN)C(=O)NCC(=O)N[C@@H](CO)C(=O)N[C@@H](Cc1c[nH]cn1)C(=O)N[C@@H](CC(C)C)C(=O)N[C@@H](CC(C)C)C(=O)NCC(=O)NCC(=O)N[C@@H](C)C(=O)N1CCC[C@H]1C(=O)N[C@@H](CCC(N)=O)C(=O)O [CPF-P2] (H-GLASFLGKALKAGLKIGSHLLGGAPQ-OH),> 46,> 46,5.8,5.8,23,23,> 46,> 46,> 46,> 46,2.9,5.8,46,2.9,1.4,> 46,> 46,46,46,1.4,"Modal MIC (S. aureus (MRSA) USA300): 2.9 µM; Modal MIC ([2]; NCTC 13616, 20 h): 1.4 µM"
CC[C@H](C)[C@H](NC(=O)[C@H](CCCCN)NC(=O)[C@H](CC(C)C)NC(=O)CNC(=O)[C@H](C)NC(=O)[C@H](CCCCN)NC(=O)[C@H](CC(C)C)NC(=O)[C@H](C)NC(=O)[C@H](CCCCN)NC(=O)CNC(=O)[C@H](CC(C)C)NC(=O)[C@@H](N)Cc1ccccc1)C(=O)NCC(=O)N[C@@H](CO)C(=O)N[C@@H](Cc1c[nH]cn1)C(=O)N[C@@H](CC(C)C)C(N)=O [CPF-P2a] (H-FLGKALKAGLKIGSHL-NH2),> 74,> 74,> 74,> 74,> 74,> 74,> 74,> 74,> 74,> 74,18.6,37.1,,37.1,18.6,> 74,> 74,,,,Modal MIC (S. aureus (MRSA) 1199B): > 74 µM
CC[C@H](C)[C@H](NC(=O)CNC(=O)[C@H](CCCNC(=N)N)NC(=O)[C@@H](N)Cc1c[nH]c2ccccc12)C(=O)N[C@@H](CCCNC(=N)N)C(=O)NCC(=O)N[C@@H](Cc1ccc(O)cc1)C(=O)N[C@@H](CCCCN)C(=O)NCC(=O)NCC(=O)N[C@@H](Cc1ccc(O)cc1)C(=O)N[C@H](C(=O)NCC(=O)N[C@@H](CCCNC(=N)N)C(=O)N[C@@H](Cc1ccccc1)C(=O)N[C@@H](CCCCN)C(=O)N[C@@H](CCC(N)=O)C(=O)N[C@H](C(=O)N[C@@H](CCCCN)C(=O)N[C@@H](Cc1ccc(O)cc1)C(N)=O)[C@@H](C)O)[C@@H](C)O [W-OmB-Ca] (H-WRGIRGYKGGYTGRFKQTKY-NH2),> 52.5,> 52.5,> 52.5,> 52.5,> 52.5,> 52.5,> 52.5,> 52.5,> 52.5,> 52.5,52.5,,,13.1,26.2,,,,,52.5,
CC[C@H](C)[C@H](NC(=O)CNC(=O)[C@H](CO)NC(=O)[C@@H](N)Cc1c[nH]c2ccccc12)C(=O)N[C@@H](CCCNC(=N)N)C(=O)NCC(=O)N[C@@H](Cc1ccc(O)cc1)C(=O)N[C@@H](CCCCN)C(=O)NCC(=O)NCC(=O)N[C@@H](Cc1ccc(O)cc1)C(=O)N[C@@H](CCCCN)C(=O)NCC(=O)N[C@@H](CC(C)C)C(=O)N[C@@H](Cc1ccccc1)C(=O)N[C@@H](CCCCN)C(=O)N[C@@H](CCC(N)=O)C(=O)N[C@H](C(=O)N[C@@H](CC(N)=O)C(=O)N[C@@H](Cc1ccc(O)cc1)C(N)=O)[C@@H](C)O [W-OmC-Ca] (H-WSGIRGYKGGYKGLFKQTNY-NH2),> 54.3,> 54.3,> 54.3,> 54.3,> 54.3,> 54.3,> 54.3,> 54.3,> 54.3,> 54.3,54.3,,,54.3,54.3,,,,,54.3,
CC[C@H](C)[C@H](NC(=O)[C@H](CCCCN)NC(=O)[C@H](CO)NC(=O)[C@H](C)NC(=O)[C@H](Cc1c[nH]c2ccccc12)NC(=O)CN)C(=O)NCC(=O)N[C@@H](CCC(N)=O)C(=O)N[C@H](C(=O)N[C@@H](CC(C)C)C(=O)NCC(=O)N[C@@H](CCCCN)C(=O)N[C@H](C(=O)N[C@@H](C)C(=O)N[C@@H](CCCCN)C(=O)N[C@H](C(=O)NCC(=O)N[C@@H](CC(C)C)C(=O)N[C@@H](CCCCN)C(=O)N[C@@H](CCC(=O)O)C(=O)N[C@@H](CC(C)C)C(=O)N[C@H](C(=O)N[C@@H](CCC(N)=O)C(=O)N1CCC[C@H]1C(=O)N[C@@H](CCCCN)C(=O)O)[C@@H](C)CC)C(C)C)[C@@H](C)CC)[C@@H](C)O [XPF] (H-GWASKIGQTLGKIAKVGLKELIQPK-OH),> 46.5,> 46.5,11.6,11.6,> 46.5,> 46.5,> 46.5,> 46.5,> 46.5,> 46.5,1.5,1.5,46.5,1.5,1.5,,,11.6,23.2,11.6,"Modal MIC (P. aeruginosa PAO1; PAO1, 20 h): 46.5 µM; Modal MIC (S. aureus (MRSA) USA300): 46.5 µM; Modal MIC ([2]; NCTC 13616, 20 h): 46.5 µM"
Colistin [reference compound],,,,,,,,,,,,,,,,,,,,,"Modal MIC (E. coli NCTC 12923; E. coli NCTC 12923 (S), MHB, ~5×10^5 CFU/mL, 37 °C, 20 h, OD600, min. three biological repeats): 0.0625 µg/mL; Modal MIC (E. coli LEC001; E. coli LEC001 (R), MHB, 37 °C, 20 h, OD600, min. three biological repeats): 2 µg/mL; Modal MIC (P. aeruginosa PAO1; P. aeruginosa PAO1 (S), MHB, 37 °C, 20 h, OD600, min. three biological repeats): 2 µg/mL; Modal MIC (P. aeruginosa NCTC 13437; P. aeruginosa NCTC 13437 (R), MHB, 37 °C, 20 h, OD600, min. three biological repeats): 4 µg/mL; Modal MIC (A. baumannii AYE; A. baumannii AYE (R), MHB, 37 °C, OD600, min. three biological repeats): 1 µg/mL; Modal MIC (A. baumannii ATCC 17978; A. baumannii ATCC 17978 (S), MHB, 37 °C, 20 h, OD600, min. three biological repeats): 1 µg/mL; Modal MIC (K. pneumoniae NCTC 13368; K. pneumoniae NCTC 13368 (R), MHB, 37 °C, 20 h, OD600, min. three biological repeats): 1 µg/mL; Modal MIC (K. pneumoniae M6; K. pneumoniae M6 (S), MHB, 37 °C, 20 h, OD600, min. three biological repeats): 2 µg/mL; Modal MIC ([2]; S. aureus (MRSA) NCTC 13616 (R), MHB, 37 °C, 20 h, OD600, min. three biological repeats): > 128 µg/mL"
